Experiments:
Assay in all cases: Leaf treatment test (post-emergence spray, % damage)
Format in all cases: in vivo
Details in all cases: 14 days after treatment, vs untreated control
[1] = system: Echinochloa crus-galli Beauv. var. caudata Kitagawa (Barnyard grass, ECHCG)
Protocol: (§1) Seeds of rice, wheat, barley, corn, cotton, barnyard grass, common sorgum, large crabgrass and fall panicum were seeded at a pot with a surface area of 600 cm. When barnyard grass kept at 20˜30° C. had three leaves, wettable powders prepared by mixing 1 weight part of the active compound, 5 weight part of acetone and 1 weight part of emulsifier and diluting with water was applied directly on the leaves in 2000 l per hectare. The concentration of the spray liquid was so chosen the particular amounts of the active compound desired. 14 days after the treatment, the degree of damage to the plants was rated in % damage in comparison to the development of untreated control. 0% no action (like untreated control) 20% slight effect 70% herbicidal effect 100% total destruction [table]

[2] = system: Oryza sativa L. cv. Dongjin (Rice, ORYSA)
Protocol: as §1

[3] = system: Andropogon sorghum (Common sorgum, SORBI)
Protocol: as §1

[4] = system: Digitaria Sanguinalis (L.) SCOP (Large crabgrass, DIGSA)
Protocol: as §1

[5] = system: Glydne max (L.) MERR (Soy bean, GLXMA)
Protocol: [The procedure below names another organism; the source lists this organism under the same test.] as §1

[6] = system: Gossypium (Cotton, GOSHI)
Protocol: as §1

[7] = system: Panicum dichotomiflorum Michx (Fall panicum, PANDI)
Protocol: as §1

[8] = system: Triticum aestivum L. (Wheat, TRZAW)
Protocol: as §1

[9] = system: Zea mays L. (Corn, ZEAMX)
Protocol: as §1

## COC(=O)c1cccc(NC(=O)C(C)Oc2ccc(Oc3nc4ccc(Cl)cc4o3)cc2)c1 (stereo not drawn) [Compound 1]
[1]; 15 g/ha
  degree of damage to the plants, ECHCG: 0%
[1]; 30 g/ha
  degree of damage to the plants, ECHCG: 80%
[1]; 60 g/ha
  degree of damage to the plants, ECHCG: 100%
[1]; 125 g/ha
  degree of damage to the plants, ECHCG: 100%
[1]; 250 g/ha
  degree of damage to the plants, ECHCG: 100%
[1]; 500 g/ha
  degree of damage to the plants, ECHCG: 100%
[1]; 1000 g/ha
  degree of damage to the plants, ECHCG: 100%
[2]; 15 g/ha
  degree of damage to the plants, ORYSA: 0%
[2]; 30 g/ha
  degree of damage to the plants, ORYSA: 0%
[2]; 60 g/ha
  degree of damage to the plants, ORYSA: 0%
[2]; 125 g/ha
  degree of damage to the plants, ORYSA: 0%
[2]; 250 g/ha
  degree of damage to the plants, ORYSA: 10%
[2]; 500 g/ha
  degree of damage to the plants, ORYSA: 20%
[2]; 1000 g/ha
  degree of damage to the plants, ORYSA: 30%

## CCOC(=O)c1cccc(NC(=O)C(C)Oc2ccc(Oc3nc4ccc(Cl)cc4o3)cc2)c1 (stereo not drawn) [Compound 2]
[3]; 0.004 kg/ha
  degree of damage to the plants, SORBI: 40%
[3]; 0.016 kg/ha
  degree of damage to the plants, SORBI: 100%
[3]; 0.063 kg/ha
  degree of damage to the plants, SORBI: 100%
[3]; 1 kg/ha
  degree of damage to the plants, SORBI: 100%
[3]; 025 kg/ha
  degree of damage to the plants, SORBI: 100%
[4]; 0.004 kg/ha
  degree of damage to the plants, DIGSA: 95%
[4]; 0.016 kg/ha
  degree of damage to the plants, DIGSA: 100%
[4]; 0.063 kg/ha
  degree of damage to the plants, DIGSA: 100%
[4]; 1 kg/ha
  degree of damage to the plants, DIGSA: 100%
[4]; 025 kg/ha
  degree of damage to the plants, DIGSA: 100%
[1]; 0.004 kg/ha
  degree of damage to the plants, ECHCG: 90%
[1]; 0.016 kg/ha
  degree of damage to the plants, ECHCG: 100%
[1]; 0.063 kg/ha
  degree of damage to the plants, ECHCG: 100%
[1]; 1 kg/ha
  degree of damage to the plants, ECHCG: 100%
[1]; 15 g/ha
  degree of damage to the plants, ECHCG: 8%
[1]; 025 kg/ha
  degree of damage to the plants, ECHCG: 100%
[1]; 30 g/ha
  degree of damage to the plants, ECHCG: 100%
[1]; 60 g/ha
  degree of damage to the plants, ECHCG: 100%
[1]; 125 g/ha
  degree of damage to the plants, ECHCG: 100%
[1]; 250 g/ha
  degree of damage to the plants, ECHCG: 100%
[1]; 500 g/ha
  degree of damage to the plants, ECHCG: 100%
[1]; 1000 g/ha
  degree of damage to the plants, ECHCG: 100%
[5]; 0.004 kg/ha
  degree of damage to the plants, GLXMA: 0%
[5]; 0.016 kg/ha
  degree of damage to the plants, GLXMA: 0%
[5]; 0.063 kg/ha
  degree of damage to the plants, GLXMA: 0%
[5]; 1 kg/ha
  degree of damage to the plants, GLXMA: 0%
[5]; 025 kg/ha
  degree of damage to the plants, GLXMA: 0%
[6]; 0.004 kg/ha
  degree of damage to the plants, GOSHI: 0%
[6]; 0.016 kg/ha
  degree of damage to the plants, GOSHI: 0%
[6]; 0.063 kg/ha
  degree of damage to the plants, GOSHI: 0%
[6]; 1 kg/ha
  degree of damage to the plants, GOSHI: 0%
[6]; 025 kg/ha
  degree of damage to the plants, GOSHI: 0%
[2]; 0.004 kg/ha
  degree of damage to the plants, ORYSA: 0%
[2]; 0.016 kg/ha
  degree of damage to the plants, ORYSA: 0%
[2]; 0.063 kg/ha
  degree of damage to the plants, ORYSA: 0%
[2]; 1 kg/ha
  degree of damage to the plants, ORYSA: 40%
[2]; 15 g/ha
  degree of damage to the plants, ORYSA: 0%
[2]; 025 kg/ha
  degree of damage to the plants, ORYSA: 40%
[2]; 30 g/ha
  degree of damage to the plants, ORYSA: 0%
[2]; 60 g/ha
  degree of damage to the plants, ORYSA: 0%
[2]; 125 g/ha
  degree of damage to the plants, ORYSA: 0%
[2]; 250 g/ha
  degree of damage to the plants, ORYSA: 15%
[2]; 500 g/ha
  degree of damage to the plants, ORYSA: 35%
[2]; 1000 g/ha
  degree of damage to the plants, ORYSA: 45%
[7]; 0.004 kg/ha
  degree of damage to the plants, PANDI: 95%
[7]; 0.016 kg/ha
  degree of damage to the plants, PANDI: 100%
[7]; 0.063 kg/ha
  degree of damage to the plants, PANDI: 100%
[7]; 1 kg/ha
  degree of damage to the plants, PANDI: 100%
[7]; 025 kg/ha
  degree of damage to the plants, PANDI: 100%
[8]; 0.004 kg/ha
  degree of damage to the plants, TRZAW: 0%
[8]; 0.016 kg/ha
  degree of damage to the plants, TRZAW: 0%
[8]; 0.063 kg/ha
  degree of damage to the plants, TRZAW: 0%
[8]; 1 kg/ha
  degree of damage to the plants, TRZAW: 40%
[8]; 025 kg/ha
  degree of damage to the plants, TRZAW: 20%
[9]; 0.004 kg/ha
  degree of damage to the plants, ZEMAX: 0%
[9]; 0.016 kg/ha
  degree of damage to the plants, ZEMAX: 0%
[9]; 0.063 kg/ha
  degree of damage to the plants, ZEMAX: 20%
[9]; 1 kg/ha
  degree of damage to the plants, ZEMAX: 100%
[9]; 025 kg/ha
  degree of damage to the plants, ZEMAX: 100%

## CCOC(=O)c1cccc(N(C)C(=O)C(C)Oc2ccc(Oc3nc4ccc(Cl)cc4o3)cc2)c1 (stereo not drawn) [Compound 3]
[1]; 15 g/ha
  degree of damage to the plants, ECHCG: 0%
[1]; 30 g/ha
  degree of damage to the plants, ECHCG: 0%
[1]; 60 g/ha
  degree of damage to the plants, ECHCG: 20%
[1]; 125 g/ha
  degree of damage to the plants, ECHCG: 90%
[1]; 250 g/ha
  degree of damage to the plants, ECHCG: 100%
[1]; 500 g/ha
  degree of damage to the plants, ECHCG: 100%
[1]; 1000 g/ha
  degree of damage to the plants, ECHCG: 100%
[2]; 15 g/ha
  degree of damage to the plants, ORYSA: 0%
[2]; 30 g/ha
  degree of damage to the plants, ORYSA: 0%
[2]; 60 g/ha
  degree of damage to the plants, ORYSA: 0%
[2]; 125 g/ha
  degree of damage to the plants, ORYSA: 0%
[2]; 250 g/ha
  degree of damage to the plants, ORYSA: 0%
[2]; 500 g/ha
  degree of damage to the plants, ORYSA: 0%
[2]; 1000 g/ha
  degree of damage to the plants, ORYSA: 0%

## COC(=O)c1ccc(NC(=O)C(C)Oc2ccc(Oc3nc4ccc(Cl)cc4o3)cc2)cc1 (stereo not drawn) [Compound 4]
[3]; 0.025 kg/ha
  degree of damage to the plants, SORBI: 70%
[3]; 0.1 kg/ha
  degree of damage to the plants, SORBI: 100%
[4]; 0.025 kg/ha
  degree of damage to the plants, DIGSA: 100%
[4]; 0.1 kg/ha
  degree of damage to the plants, DIGSA: 100%
[1]; 0.025 kg/ha
  degree of damage to the plants, ECHCG: 100%
[1]; 0.1 kg/ha
  degree of damage to the plants, ECHCG: 100%
[5]; 0.025 kg/ha
  degree of damage to the plants, GLXMA: 0%
[5]; 0.1 kg/ha
  degree of damage to the plants, GLXMA: 0%
[6]; 0.025 kg/ha
  degree of damage to the plants, GOSHI: 0%
[6]; 0.1 kg/ha
  degree of damage to the plants, GOSHI: 0%
[2]; 0.025 kg/ha
  degree of damage to the plants, ORYSA: 0%
[2]; 0.1 kg/ha
  degree of damage to the plants, ORYSA: 30%
[7]; 0.025 kg/ha
  degree of damage to the plants, PANDI: 80%
[7]; 0.1 kg/ha
  degree of damage to the plants, PANDI: 100%
[8]; 0.025 kg/ha
  degree of damage to the plants, TRZAW: 0%
[8]; 0.1 kg/ha
  degree of damage to the plants, TRZAW: 0%
[9]; 0.025 kg/ha
  degree of damage to the plants, ZEAMX: 0%
[9]; 0.1 kg/ha
  degree of damage to the plants, ZEAMX: 0%

## CCOC(=O)c1ccc(NC(=O)C(C)Oc2ccc(Oc3nc4ccc(Cl)cc4o3)cc2)cc1 (stereo not drawn) [Compound 5]
[3]; 0.025 kg/ha
  degree of damage to the plants, SORBI: 95%
[3]; 0.1 kg/ha
  degree of damage to the plants, SORBI: 100%
[4]; 0.025 kg/ha
  degree of damage to the plants, DIGSA: 100%
[4]; 0.1 kg/ha
  degree of damage to the plants, DIGSA: 100%
[1]; 0.025 kg/ha
  degree of damage to the plants, ECHCG: 95%
[1]; 0.1 kg/ha
  degree of damage to the plants, ECHCG: 100%
[5]; 0.025 kg/ha
  degree of damage to the plants, GLXMA: 0%
[5]; 0.1 kg/ha
  degree of damage to the plants, GLXMA: 20%
[6]; 0.025 kg/ha
  degree of damage to the plants, GOSHI: 0%
[6]; 0.1 kg/ha
  degree of damage to the plants, GOSHI: 0%
[2]; 0.025 kg/ha
  degree of damage to the plants, ORYSA: 0%
[2]; 0.1 kg/ha
  degree of damage to the plants, ORYSA: 40%
[7]; 0.025 kg/ha
  degree of damage to the plants, PANDI: 95%
[7]; 0.1 kg/ha
  degree of damage to the plants, PANDI: 100%
[8]; 0.025 kg/ha
  degree of damage to the plants, TRZAW: 0%
[8]; 0.1 kg/ha
  degree of damage to the plants, TRZAW: 20%
[9]; 0.025 kg/ha
  degree of damage to the plants, ZEAMX: 0%
[9]; 0.1 kg/ha
  degree of damage to the plants, ZEAMX: 30%

Source: patent US6489268B1, “Highly selective herbicidal phenoxypropionic acid alkoxycarbonyl anilid compounds and method of preparing the same” (Dongbu Hannong Chemical Co., Ltd., priority 1999, dated 2002)
